The source made the active and inactive calls.
What was measured:
[1] = biological target: Glutathione-S-transferase (Schistosoma japonicum, UniProt Q26513); assay: biotin-GST/anti-GST TR-FRET signal inhibitors, dose response, artefact control for Vif-APOBEC3G degradation inhibitor project, biochemical (AID 1117362); format: functional
Estrogen receptor beta = Estrogen receptor beta (Homo sapiens, UniProt Q92731);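 also: recombinant ER-beta bound to coactivator SRC1 peptide in presence of estradiol agonist; inhibitors block coactivator peptide binding and lower the FRET signal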
Chain of Estrogen receptor beta (Q92731 whole entry): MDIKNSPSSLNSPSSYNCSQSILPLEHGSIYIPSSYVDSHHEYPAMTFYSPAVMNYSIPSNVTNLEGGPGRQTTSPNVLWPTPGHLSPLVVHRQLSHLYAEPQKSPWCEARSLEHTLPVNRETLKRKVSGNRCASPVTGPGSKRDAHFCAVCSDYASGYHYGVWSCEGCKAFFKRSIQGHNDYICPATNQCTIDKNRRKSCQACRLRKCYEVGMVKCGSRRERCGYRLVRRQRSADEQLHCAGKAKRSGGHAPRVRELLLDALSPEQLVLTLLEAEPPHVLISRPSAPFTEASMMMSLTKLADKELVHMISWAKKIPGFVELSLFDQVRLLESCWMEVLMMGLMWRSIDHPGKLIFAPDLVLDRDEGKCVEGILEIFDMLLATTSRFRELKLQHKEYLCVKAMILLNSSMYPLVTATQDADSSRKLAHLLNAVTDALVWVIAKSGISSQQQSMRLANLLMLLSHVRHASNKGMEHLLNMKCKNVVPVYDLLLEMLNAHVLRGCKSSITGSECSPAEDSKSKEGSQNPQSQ

[2] = biological target: Glucose-6-phosphate 1-dehydrogenase (Homo sapiens, UniProt P11413); assay: human G6PD enzyme inhibitors, dose response, selectivity assay for P. falciparum G6PD inhibitor project, biochemical, fluorescence (AID 504792); format: functional
Chain of Glucose-6-phosphate 1-dehydrogenase (P11413 whole entry): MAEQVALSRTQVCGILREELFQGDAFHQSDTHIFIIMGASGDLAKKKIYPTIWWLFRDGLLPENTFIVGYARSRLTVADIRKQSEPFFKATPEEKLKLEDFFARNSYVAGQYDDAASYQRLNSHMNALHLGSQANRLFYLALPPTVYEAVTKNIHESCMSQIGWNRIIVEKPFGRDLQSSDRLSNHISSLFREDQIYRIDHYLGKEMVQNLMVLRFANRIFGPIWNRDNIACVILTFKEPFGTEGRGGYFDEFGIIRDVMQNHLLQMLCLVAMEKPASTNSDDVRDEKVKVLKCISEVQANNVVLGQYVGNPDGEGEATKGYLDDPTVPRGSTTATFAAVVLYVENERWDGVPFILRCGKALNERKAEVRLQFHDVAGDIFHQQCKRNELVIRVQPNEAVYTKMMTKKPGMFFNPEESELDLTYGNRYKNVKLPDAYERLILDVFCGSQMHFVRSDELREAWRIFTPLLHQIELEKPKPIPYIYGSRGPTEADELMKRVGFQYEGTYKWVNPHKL

[3] = THP-1 cell cytotoxicity, dose response, cytotoxicity control for Vif-APOBEC3G degradation inhibitor project, THP-1 cells (AID 1117359); format: functional; conditions: Human immunodeficiency virus 1, THP-1
[4] = inhibitors of HIV Env-driven cell fusion, dose response, cherry-pick (AID 652057); format: functional, cell-based
[5] = CEM21 lymphoblast cell cytotoxicity, dose response, cytotoxicity control for viral fusion inhibitor project, CellTiter-Glo luminescence, cherry-picked (AID 652042); format: functional, cell-based;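 also: potency for signal decrease meaning cytotoxicity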
[6] = ZM109 Env clade C HIV-1 fusion inhibitors, dose response, HeLa effector, CEM target cells, luciferase, cherry-pick (AID 652058); format: functional, cell-based
[7] = off-target signal loss in HeLa-CEM21 co-culture – HeLa F-luc CTL cells, cherry-picked, counter-screen for HIV-1 Env fusion inhibitor project, dose response (AID 652040); format: functional, cell-based;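 also: potency for signal decrease marking cytotoxic or nonspecific inhibition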
[8] = inhibitors of clade B AD8 Env fusion, dose response, cell-based, cherry-pick (AID 652062); format: functional;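 also: luciferase signal from cell-cell fusion driven by HIV-1 clade B AD8 Env; potency is for inhibitors of fusion seen as a drop in luminescence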
[9] = Luminescence-based cell-based high throughput dose response assay to identify activators of the DAF-12 from the parasite S. stercoralis (ssDAF-12).; format: functional
[10] = biological target: T1, Oxysterols receptor LXR-beta (Homo sapiens, UniProt P55055); assay: LXR agonists, Gal4 luciferase reporter, dose response, counter-screen for ssDAF-12 agonist project, cell-based, luminescence, HEK293, S. stercoralis campaign (AID 720737); format: functional; conditions: read-out: IC50 (the source's name)
T1 sequence (P55055 whole entry): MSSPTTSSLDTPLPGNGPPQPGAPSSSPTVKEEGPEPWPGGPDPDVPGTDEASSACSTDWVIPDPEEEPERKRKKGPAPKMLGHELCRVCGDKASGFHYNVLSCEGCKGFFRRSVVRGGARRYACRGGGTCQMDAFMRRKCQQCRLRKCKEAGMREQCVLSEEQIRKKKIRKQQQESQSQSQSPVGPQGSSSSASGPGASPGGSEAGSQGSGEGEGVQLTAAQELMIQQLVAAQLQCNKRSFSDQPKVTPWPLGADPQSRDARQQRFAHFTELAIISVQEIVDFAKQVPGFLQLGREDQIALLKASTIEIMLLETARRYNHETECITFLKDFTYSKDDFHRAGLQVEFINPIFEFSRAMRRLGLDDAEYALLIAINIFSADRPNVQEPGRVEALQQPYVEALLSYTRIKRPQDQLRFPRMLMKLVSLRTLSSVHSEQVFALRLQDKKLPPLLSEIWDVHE

Paired box protein Pax-8 = Paired box protein Pax-8 (Homo sapiens, UniProt Q06710); assay: inhibitors of PAX8-driven TPO luciferase reporter, dose response, RMG-I cells, cherry-pick (AID 687027); format: functional, cell-based;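 also: luciferase reporter driven by Pax8 target thyroperoxidase promoter measured by SteadyGlo luminescence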
Chain of Paired box protein Pax-8 (Q06710 whole entry): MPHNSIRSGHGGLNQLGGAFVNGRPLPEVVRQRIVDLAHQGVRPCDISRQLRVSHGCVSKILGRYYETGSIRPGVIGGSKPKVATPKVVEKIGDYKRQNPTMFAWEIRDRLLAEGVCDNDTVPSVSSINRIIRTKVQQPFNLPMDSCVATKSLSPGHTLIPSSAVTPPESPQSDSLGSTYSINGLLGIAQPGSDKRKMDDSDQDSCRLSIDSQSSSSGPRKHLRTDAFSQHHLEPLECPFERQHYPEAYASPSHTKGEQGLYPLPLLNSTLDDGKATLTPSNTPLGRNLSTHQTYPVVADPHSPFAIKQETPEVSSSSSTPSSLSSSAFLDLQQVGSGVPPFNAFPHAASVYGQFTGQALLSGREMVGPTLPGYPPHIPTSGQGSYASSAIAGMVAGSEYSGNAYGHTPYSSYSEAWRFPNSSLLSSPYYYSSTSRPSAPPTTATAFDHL

[11] = PAX2 cell-based inhibition, dose response, selectivity assay for PAX8 inhibitor project, plate reader, dry powder samples (AID 743048); format: functional;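 also: HEK293 cells carrying a WT1 promoter luciferase reporter driven by expressed Pax2; potency is for inhibition of Pax2 driven reporter signal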
[12] = cytotoxicity in COV362 ovarian cancer cells, dose response, cytotoxicity control for PAX8 inhibitor project, cell-based, plate reader, dry powder, SA12 (AID 743144); format: functional
[13] = PAX5 activity inhibitors, dose response, selectivity assay for PAX8 inhibitor project, cell-based, plate reader, dry powder samples (AID 743047); format: functional;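 also: HEK293 cells carrying a Pax5 driven CD19 promoter luciferase reporter; potency of inhibitors that lower reporter luminescence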
[14] = cytotoxicity in OVCAR8 ovarian cancer cells, dose response, PAX8 project, cell-based, plate reader, dry powder samples (AID 743197); format: functional; conditions: OVCAR-8
[15] = cytotoxicity dependent on PAX8, dose response, cell-based, plate reader, dry powder (AID 743049); format: functional
[16] = P. falciparum 3D7-ScDHODH growth inhibitors, dose response, SYBR Green, dry powder samples (AID 1159570); format: functional, cell-based;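 also: parasite growth measured after 72 hours of compound exposure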
[17] = HepG2 cell cytotoxicity, dose response, cytotoxicity control, plate reader, dry powder samples (AID 1159569); format: functional, cell-based;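 also: inhibitor potency with signal falling toward the positive control level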
[18] = P. falciparum Dd2 growth inhibitors, dose response, SYBR Green, cherry-picked samples (AID 1159567); format: functional, cell-based
[19] = P. falciparum Dd2 growth inhibitors, dose response, SYBR Green, dry powder samples (AID 1159566); format: functional, cell-based;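 also: potency for growth inhibition with lower SYBR green DNA signal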
[20] = P. falciparum ATP4 D1247Y mutant growth inhibitors, dose response, NITD609-resistant line, SYBR Green, dry powder (AID 1159571); format: functional, cell-based;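 also: parasites synchronized at ring stage by sorbitol before testing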
[21] = IOSE-T80 ovarian epithelial cell cytotoxicity, dose response, cytotoxicity control for PAX8 inhibitor project, plate reader, dry powder samples (AID 743045); format: functional, cell-based
[22] = A2780 ovarian cancer cell cytotoxicity, dose response, cytotoxicity control, plate reader, dry powder samples (AID 743046); format: functional, cell-based
[23] = NIH:OVCAR-3 ovarian cancer cell cytotoxicity, dose response, PAX8 inhibitor project, plate reader, dry powder samples (AID 743044); format: functional, cell-based
[24] = IGROV1 ovarian cancer cell cytotoxicity, dose response, PAX8 inhibitor project, plate reader, dry powder samples (AID 743043); format: functional, cell-based; conditions: IGROV-1
[25] = Late stage assay provider results from the probe development effort to identify selective inhibitors of heat shock protein 90 (HSP90): Absorbance-based cell proliferation assay in SKBR3 cells.; format: functional; conditions: SK-BR-3
[26] = Late stage assay provider results from the probe development effort to identify selective inhibitors of heat shock protein 90 (HSP90): Absorbance-based cell proliferation assay in MCF7 cells.; format: functional
[27] = Luminescence Cell-Based Dose Response to Identify Activators of 5'UTR Stem-Loop Driven Prion Protein mRNA Translation in H4-C Neuroglioblastoma Cells. [Related pubchem assays: 1829 (Project Summary), 1814 (Primary HTS)]; format: functional
[28] = Luminescence Cell-Based Dose Response HTS to Identify Activators of Luciferase Translation or Activity in H4 […] Cells. [Related pubchem assays: 1829 (Project Summary), 1814 (Primary HTS)]; format: functional
[29] = Luminescence Cell-Based Dose Response to Identify Activators of Luciferase Translation or Activity in H4-C Neuroglioblastoma Cells. [Related pubchem assays: 1829 (Project Summary), 1814 (Primary HTS)]; format: functional
[30] = Luminescence Cell-Based Dose Confirmation to Identify Activators of 5'UTR Stem-Loop Driven Alpha-Synuclein mRNA Translation in H4 Neuroglioblastoma Cells. [Related pubchem assays: 1829 (Project Summary), 1814 (Primary HTS)]; format: functional
[31] = Concentration-dependent survival of SW480 colon cancer line, luminescence detection with CellTiter-Glo, half-maximal inhibitory concentration (AID 1117338); format: functional
[32] = RKO cell viability reduction, dose response, CellTiter-Glo luminescence (AID 1117322); format: functional
[33] = cytotoxicity toward HCT116 cells – cell-based, CellTiter-Glo luminescence, IC50, dose response (AID 1117332); format: functional; conditions: HCT-116
[34] = SNU-C1 cell viability reduction, dose response, CellTiter-Glo luminescence (AID 1117323); format: functional, cell-based
[35] = cytotoxicity toward Colo320 cells – cell-based, CellTiter-Glo luminescence, IC50, dose response (AID 1117334); format: functional; conditions: COLO 320
[36] = cytotoxicity toward HT-29 cells – cell-based, CellTiter-Glo luminescence, IC50, dose response (AID 1117330); format: functional
[37] = CellTiter-Glo luminescent dose response of DLD-1 viability loss (AID 1117352); format: functional
[38] = HCT116 cell viability decrease, GSK3B pretreatment – CellTiter-Glo, IC50, dose response (AID 1117339); format: functional; conditions: HCT-116

Chain of Glutathione-S-transferase (Q26513 whole entry): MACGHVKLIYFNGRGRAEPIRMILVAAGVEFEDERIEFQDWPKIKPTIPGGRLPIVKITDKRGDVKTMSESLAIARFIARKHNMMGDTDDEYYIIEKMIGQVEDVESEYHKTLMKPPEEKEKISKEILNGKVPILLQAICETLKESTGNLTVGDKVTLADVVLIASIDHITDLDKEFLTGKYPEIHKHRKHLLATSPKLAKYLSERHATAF

With Cn1nccc1NC(=O)Nc1ccc(Cl)cc1 the IC50 [1] was 93.4 µM (active).

For COc1ccc(N2CC(C(=O)O)CC2=O)cc1 (configuration not stated), the IC50 (Estrogen receptor beta) was > 50 µM (not active).

With COc1cccc(C=Nc2cc(C(C)C)c(O)cc2C)c1O the IC50 [2] was 33.9 µM (inactive) and the CC50 [3] was 27.2 µM (active).

For Fc1cccc(Cc2c(-c3ccco3)nc3c4ccccc4ccn23)c1, the AC50 [4] was 1.12 µM (active), the AC50 [5] was 44 µM (active) and the AC50 [6] was 1.2 µM (active). For the same molecule, the AC50 [7] was 0.907 µM (active), the AC50 [8] was 5.56 µM (active) and the IC50 [9] was > 67.5 µM (inactive). The EC50 [10] was > 67.5 µM (inactive).

For COc1cccc(C#Cc2ccc([C@@H]3[C@@H](C#N)N(C(=O)C4CCCCC4)[C@H]3CO)cc2)c1, the AC50 (Paired box protein Pax-8) was 8.61 µM (active), the AC50 [11] was 46.5 µM (active) and the AC50 [12] was > 70 µM (inactive). The AC50 [13] was 5.72 µM (active), the AC50 [14] was > 70 µM (inactive) and the AC50 [15] was 15.9 µM (active). For the same molecule, the AC50 [16] was 1.11 µM (active), the AC50 [17] was 26.5 µM (active) and the AC50 [18] was 0.865 µM (active). For the same molecule, the AC50 [19] was 0.422 µM (active) and the AC50 [20] was 1.13 µM (active).

For COc1ccc(-c2ccc3c(c2)[C@H]2[C@H](CCN2S(=O)(=O)c2ccc(OC)cc2)[C@H](CO)N3C)cc1, the AC50 (Paired box protein Pax-8) was 7.21 µM (active), the AC50 [21] was 6.56 µM (active) and the AC50 [22] was 1.52 µM (active). For the same molecule, the AC50 [23] was 3.15 µM (active), the AC50 [24] was 5.8 µM (active) and the AC50 [14] was 7.31 µM (active).

With CCCCCCCCOc1ccc(NC(=O)c2coc(=O)c(Br)c2)cc1 the IC50 [25] was 13.5 µM (inactive) and the IC50 [26] was 12.9 µM (inactive).

For O=C(NCc1cccnc1)c1coc(=O)c(Br)c1, the IC50 [25] was 12.8 µM (inactive) and the IC50 [26] was 3.5 µM (active).

With CSc1nsc(N/N=C/c2ccc3c(c2)OCO3)c1C#N the EC50 [27] was 0.314 µM (active), the EC50 [28] was < 0.1 µM (inconclusive) and the EC50 [29] was 0.303 µM (active). The EC50 [30] was 0.415 µM (active).

In the case of O=C(NC(=O)c1c(F)cccc1F)Nc1ccc(Cl)c(Oc2ncc(C(F)(F)F)cc2Cl)c1 [FLUAZURON], the IC50 [31] is reported as > 20 µM (inactive), the IC50 [32] is reported as 11.8 µM (inactive) and the IC50 [33] is reported as > 20 µM (inactive). The IC50 [34] was > 20 µM (inactive), the IC50 [35] was > 20 µM (inactive) and the IC50 [36] was > 20 µM (inactive). For the same molecule, the IC50 [37] was > 20 µM (inactive) and the IC50 [38] was 10.6 µM (inactive).

For CC(=O)N(CC(O)CN(C(C)=O)c1c(I)c(C(=O)NCC(O)CO)c(I)c(C(=O)NCC(O)CO)c1I)c1c(I)c(C(=O)NCC(O)CO)c(I)c(C(=O)NCC(O)CO)c1I (configuration not stated) [IODIXANOL], the IC50 [31] was > 20 µM (inactive), the IC50 [32] was > 20 µM (inactive) and the IC50 [33] was > 20 µM (inactive). For the same molecule, the IC50 [34] was > 20 µM (inactive), the IC50 [35] was > 20 µM (inactive) and the IC50 [36] was > 20 µM (inactive). For the same molecule, the IC50 [37] was > 20 µM (inactive) and the IC50 [38] was > 20 µM (inactive).
